What was measured:
[1] = tested on: HS 578T; test: NCI-60 anticancer screening (SRB); type: cell-based; details: Homo sapiens; HS 578T, breast cancer; one dose 10 μM; read-out: Growth Inhibition Percentage (GI %)
[2] = biological target: EGFR^L858R (Homo sapiens, UniProt P00533, L858R); test: biochemical
[3] = tested on: RPMI-8226; test: NCI-60 anticancer screening (SRB); type: cell-based; details: Homo sapiens; RPMI-8226, leukemia; one dose 10 μM; read-out: Growth Inhibition Percentage (GI %)
[4] = tested on: SN 12C; test: NCI-60 anticancer screening (SRB); type: cell-based; details: Homo sapiens, SN12C; SN 12C, renal cancer; one dose 10 μM; read-out: Growth Inhibition Percentage (GI %)
[5] = tested on: LOX IMVI; test: NCI-60 anticancer screening (SRB); type: cell-based; details: Homo sapiens, melanoma, one dose 10 μM, read-out: Growth Inhibition Percentage (GI %)
[6] = tested on: CCRF-CEM; test: NCI-60 anticancer screening (SRB); type: cell-based; details: Homo sapiens, leukemia, one dose 10 μM, read-out: Growth Inhibition Percentage (GI %)
[7] = tested on: OVCAR-4; test: NCI-60 anticancer screening (SRB); type: cell-based; details: Homo sapiens; OVCAR-4, ovarian cancer; one dose 10 μM; read-out: Growth Inhibition Percentage (GI %)
[8] = tested on: SF-295; test: NCI-60 anticancer screening (SRB); type: cell-based; details: Homo sapiens; SF-295, CNS cancer; one dose 10 μM; read-out: Growth Inhibition Percentage (GI %)
[9] = tested on: TK-10; test: NCI-60 anticancer screening (SRB); type: cell-based; details: Homo sapiens; TK-10, renal cancer; one dose 10 μM; read-out: Growth Inhibition Percentage (GI %)
[10] = tested on: HOP-92; test: NCI-60 anticancer screening (SRB); type: cell-based; details: Homo sapiens; HOP-92, NSC lung cancer; one dose 10 μM; read-out: Growth Inhibition Percentage (GI %)
[11] = tested on: SF-539; test: NCI-60 anticancer screening (SRB); type: cell-based; details: Homo sapiens; SF-539, CNS cancer; one dose 10 μM; read-out: Growth Inhibition Percentage (GI %)
[12] = tested on: K-562; test: NCI-60 anticancer screening (SRB); type: cell-based; details: Homo sapiens, K562; K-562, leukemia; one dose 10 μM; read-out: Growth Inhibition Percentage (GI %)
[13] = tested on: PC-3; test: NCI-60 anticancer screening (SRB); type: cell-based; details: Homo sapiens; PC-3, prostate cancer; one dose 10 μM; read-out: Growth Inhibition Percentage (GI %)
[14] = tested on: SW-620; test: NCI-60 anticancer screening (SRB); type: cell-based; details: Homo sapiens; SW-620, colon cancer; one dose 10 μM; read-out: Growth Inhibition Percentage (GI %)
[15] = tested on: NCI-H460; test: NCI-60 anticancer screening (SRB); type: cell-based; details: Homo sapiens; NCI-H460, NSC lung cancer; one dose 10 μM; read-out: Growth Inhibition Percentage (GI %)
[16] = tested on: T-47D; test: NCI-60 anticancer screening (SRB); type: cell-based; details: Homo sapiens, T47D, breast cancer, one dose 10 μM, read-out: Growth Inhibition Percentage (GI %)
[17] = tested on: ACHN; test: NCI-60 anticancer screening (SRB); type: cell-based; details: Homo sapiens, renal cancer, one dose 10 μM, read-out: Growth Inhibition Percentage (GI %)
[18] = tested on: SK-MEL-28; test: NCI-60 anticancer screening (SRB); type: cell-based; details: Homo sapiens; SK-MEL-28, melanoma; one dose 10 μM; read-out: Growth Inhibition Percentage (GI %)
[19] = tested on: UACC-62; test: NCI-60 anticancer screening (SRB); type: cell-based; details: Homo sapiens; UACC-62, melanoma; one dose 10 μM; read-out: Growth Inhibition Percentage (GI %)
[20] = tested on: HT29; test: NCI-60 anticancer screening (SRB); type: cell-based; details: Homo sapiens, HT-29; HT29, colon cancer; one dose 10 μM; read-out: Growth Inhibition Percentage (GI %)
[21] = biological target: EGFR^WT (Homo sapiens, UniProt P00533); test: EGFR kinase inhibitory assay (HTRF)
[22] = biological target: EGFR^T790M (Homo sapiens, UniProt P00533, T790M); test: biochemical
[23] = tested on: SK-MEL-5; test: NCI-60 anticancer screening (SRB); type: cell-based; details: Homo sapiens; SK-MEL-5, melanoma; one dose 10 μM; read-out: Growth Inhibition Percentage (GI %)
[24] = tested on: RXF 393; test: NCI-60 anticancer screening (SRB); type: cell-based; details: Homo sapiens; RXF 393, renal cancer; one dose 10 μM; read-out: Growth Inhibition Percentage (GI %)
[25] = tested on: SK-OV-3; test: NCI-60 anticancer screening (SRB); type: cell-based; details: Homo sapiens; SK-OV-3, ovarian cancer; one dose 10 μM; read-out: Growth Inhibition Percentage (GI %)
[26] = tested on: SR; test: NCI-60 anticancer screening (SRB); type: cell-based; details: Homo sapiens, leukemia, one dose 10 μM, read-out: Growth Inhibition Percentage (GI %)
[27] = tested on: HCT-116; test: NCI-60 anticancer screening (SRB); type: cell-based; details: Homo sapiens; HCT-116, colon cancer; one dose 10 μM; read-out: Growth Inhibition Percentage (GI %)
[28] = tested on: MCF7; test: NCI-60 anticancer screening (SRB); type: cell-based; details: Homo sapiens; MCF7, breast cancer; one dose 10 μM; read-out: Growth Inhibition Percentage (GI %)
[29] = tested on: A498; test: NCI-60 anticancer screening (SRB); type: cell-based; details: Homo sapiens; A498, renal cancer; one dose 10 μM; read-out: Growth Inhibition Percentage (GI %)
[30] = tested on: SF-268; test: NCI-60 anticancer screening (SRB); type: cell-based; details: Homo sapiens; SF-268, CNS cancer; one dose 10 μM; read-out: Growth Inhibition Percentage (GI %)
[31] = tested on: M14; test: NCI-60 anticancer screening (SRB); type: cell-based; details: Homo sapiens; M14, melanoma; one dose 10 μM; read-out: Growth Inhibition Percentage (GI %)

EGFR^T790M, sequence (P00533 25-1210 T790M): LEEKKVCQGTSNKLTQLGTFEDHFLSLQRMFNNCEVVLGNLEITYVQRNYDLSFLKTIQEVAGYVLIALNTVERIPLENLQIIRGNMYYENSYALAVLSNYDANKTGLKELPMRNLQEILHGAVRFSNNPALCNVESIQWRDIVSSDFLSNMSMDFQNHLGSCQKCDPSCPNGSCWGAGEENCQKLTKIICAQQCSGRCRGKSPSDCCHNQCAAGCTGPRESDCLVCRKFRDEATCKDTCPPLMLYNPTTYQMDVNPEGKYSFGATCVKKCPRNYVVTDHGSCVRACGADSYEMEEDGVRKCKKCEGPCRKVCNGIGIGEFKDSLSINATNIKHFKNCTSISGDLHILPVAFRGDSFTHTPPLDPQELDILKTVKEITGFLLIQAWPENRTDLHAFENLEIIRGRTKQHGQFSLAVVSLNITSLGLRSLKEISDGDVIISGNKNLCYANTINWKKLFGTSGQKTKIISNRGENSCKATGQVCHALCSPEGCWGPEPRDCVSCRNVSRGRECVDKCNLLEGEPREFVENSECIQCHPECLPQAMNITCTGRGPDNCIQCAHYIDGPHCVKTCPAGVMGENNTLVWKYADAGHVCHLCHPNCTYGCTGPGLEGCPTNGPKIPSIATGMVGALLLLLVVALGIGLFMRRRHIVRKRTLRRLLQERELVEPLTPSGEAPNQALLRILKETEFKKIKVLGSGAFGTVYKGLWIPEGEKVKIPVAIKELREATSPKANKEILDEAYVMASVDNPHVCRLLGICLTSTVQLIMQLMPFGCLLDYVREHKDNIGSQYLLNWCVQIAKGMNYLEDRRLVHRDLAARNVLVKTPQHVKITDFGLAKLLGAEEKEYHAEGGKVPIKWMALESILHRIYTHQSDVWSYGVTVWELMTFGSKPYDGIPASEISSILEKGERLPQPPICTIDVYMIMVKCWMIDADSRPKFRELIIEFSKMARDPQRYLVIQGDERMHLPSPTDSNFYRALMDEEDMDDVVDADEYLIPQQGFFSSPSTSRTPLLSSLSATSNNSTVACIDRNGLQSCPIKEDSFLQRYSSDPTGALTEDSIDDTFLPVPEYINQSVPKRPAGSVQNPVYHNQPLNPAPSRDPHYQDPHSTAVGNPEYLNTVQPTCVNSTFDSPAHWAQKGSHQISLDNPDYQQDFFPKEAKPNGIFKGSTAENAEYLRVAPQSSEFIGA
EGFR^WT, sequence (P00533 25-1210): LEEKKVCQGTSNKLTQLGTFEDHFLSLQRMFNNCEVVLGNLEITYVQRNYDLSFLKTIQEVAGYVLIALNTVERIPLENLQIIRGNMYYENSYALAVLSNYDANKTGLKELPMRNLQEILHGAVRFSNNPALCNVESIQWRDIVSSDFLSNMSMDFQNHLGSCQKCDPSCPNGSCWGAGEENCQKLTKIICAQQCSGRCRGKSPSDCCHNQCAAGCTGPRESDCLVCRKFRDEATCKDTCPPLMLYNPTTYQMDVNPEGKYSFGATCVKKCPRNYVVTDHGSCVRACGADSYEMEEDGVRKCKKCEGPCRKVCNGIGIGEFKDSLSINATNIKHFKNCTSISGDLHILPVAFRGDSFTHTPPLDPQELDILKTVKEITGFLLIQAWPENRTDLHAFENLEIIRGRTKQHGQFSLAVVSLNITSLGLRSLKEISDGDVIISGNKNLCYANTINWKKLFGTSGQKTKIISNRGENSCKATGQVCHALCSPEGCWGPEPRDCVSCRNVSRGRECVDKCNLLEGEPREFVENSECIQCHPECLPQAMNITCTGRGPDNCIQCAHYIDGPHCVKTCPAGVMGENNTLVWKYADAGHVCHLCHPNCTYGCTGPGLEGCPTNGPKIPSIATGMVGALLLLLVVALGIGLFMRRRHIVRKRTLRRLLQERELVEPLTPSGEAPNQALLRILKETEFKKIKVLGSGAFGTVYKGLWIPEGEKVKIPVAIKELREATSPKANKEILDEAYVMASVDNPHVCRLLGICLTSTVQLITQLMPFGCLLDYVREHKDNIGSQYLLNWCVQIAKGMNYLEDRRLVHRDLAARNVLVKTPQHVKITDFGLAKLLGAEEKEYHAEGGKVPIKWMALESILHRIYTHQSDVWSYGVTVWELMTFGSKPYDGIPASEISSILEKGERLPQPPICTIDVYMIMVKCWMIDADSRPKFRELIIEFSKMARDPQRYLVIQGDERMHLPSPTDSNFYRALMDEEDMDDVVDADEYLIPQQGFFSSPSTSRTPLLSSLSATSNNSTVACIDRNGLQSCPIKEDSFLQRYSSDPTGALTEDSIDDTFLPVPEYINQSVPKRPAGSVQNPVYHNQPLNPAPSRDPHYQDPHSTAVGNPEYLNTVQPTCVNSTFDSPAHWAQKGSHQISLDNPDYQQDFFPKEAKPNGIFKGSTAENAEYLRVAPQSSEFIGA
EGFR^L858R, sequence (P00533 25-1210 L858R): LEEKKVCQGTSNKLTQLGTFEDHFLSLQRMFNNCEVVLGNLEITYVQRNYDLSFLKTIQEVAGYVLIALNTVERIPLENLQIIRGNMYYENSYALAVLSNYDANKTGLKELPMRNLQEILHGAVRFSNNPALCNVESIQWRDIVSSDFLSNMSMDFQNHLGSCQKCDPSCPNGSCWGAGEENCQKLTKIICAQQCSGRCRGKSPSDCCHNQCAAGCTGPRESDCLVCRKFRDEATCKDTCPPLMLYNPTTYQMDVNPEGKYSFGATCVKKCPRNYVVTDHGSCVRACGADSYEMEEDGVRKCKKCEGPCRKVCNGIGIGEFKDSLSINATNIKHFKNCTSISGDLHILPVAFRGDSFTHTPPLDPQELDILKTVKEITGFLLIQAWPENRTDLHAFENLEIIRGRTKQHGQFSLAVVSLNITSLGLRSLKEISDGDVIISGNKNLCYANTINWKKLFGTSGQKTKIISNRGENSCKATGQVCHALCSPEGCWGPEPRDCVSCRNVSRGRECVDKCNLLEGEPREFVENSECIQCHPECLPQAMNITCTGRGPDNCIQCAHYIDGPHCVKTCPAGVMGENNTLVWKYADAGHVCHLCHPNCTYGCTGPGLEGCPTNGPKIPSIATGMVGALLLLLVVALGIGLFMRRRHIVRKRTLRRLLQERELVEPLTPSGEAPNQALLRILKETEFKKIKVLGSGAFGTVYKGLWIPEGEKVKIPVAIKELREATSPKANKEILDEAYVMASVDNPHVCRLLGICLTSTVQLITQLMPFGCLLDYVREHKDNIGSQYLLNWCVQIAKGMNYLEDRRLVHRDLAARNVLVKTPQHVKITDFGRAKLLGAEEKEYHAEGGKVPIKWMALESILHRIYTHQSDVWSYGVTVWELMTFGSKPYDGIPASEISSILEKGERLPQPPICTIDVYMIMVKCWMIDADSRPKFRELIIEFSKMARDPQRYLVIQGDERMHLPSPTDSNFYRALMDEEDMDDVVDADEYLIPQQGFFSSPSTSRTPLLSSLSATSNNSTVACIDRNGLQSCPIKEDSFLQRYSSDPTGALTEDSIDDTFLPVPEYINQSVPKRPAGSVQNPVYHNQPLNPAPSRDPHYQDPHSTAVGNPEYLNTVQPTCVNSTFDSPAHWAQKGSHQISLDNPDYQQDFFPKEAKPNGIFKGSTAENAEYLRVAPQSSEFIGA

SMILES | inhibition at 10 µM [1] | IC50 [2] | inhibition at 10 µM [3] | inhibition at 10 µM [4] | inhibition at 10 µM [5] | inhibition at 10 µM [6] | inhibition at 10 µM [7] | inhibition at 10 µM [8] | inhibition at 10 µM [9] | inhibition at 10 µM [10] | inhibition at 10 µM [11] | inhibition at 10 µM [12] | inhibition at 10 µM [13] | inhibition at 10 µM [14] | inhibition at 10 µM [15] | inhibition at 10 µM [16] | inhibition at 10 µM [17] | inhibition at 10 µM [18] | inhibition at 10 µM [19] | inhibition at 10 µM [20] | also measured
CCOC(=O)C1=C(N)N(c2ccccc2)C2=C(C(=O)CC(C)(C)C2)C1c1ccccc1Cl (racemic) [6a, (±)-Ethyl 2-amino-4–(2-chlorophenyl)-7,7-dimethyl-5-oxo-1-phenyl-1,4,5,6,7,8-hexahydroquinoline-3-carboxylate] | < 10% | 490 ± 4 nM | 78% | 25% | 15% | 52% | 26% | 25% | < 10% | 32% | < 10% | 59% | 71% | 26% | 40% | 48% | 31% | 19% | 56% | 45% | IC50 [21]: 358 ± 160 nM; IC50 [22]: 610 ± 5 nM; inhibition at 10 µM [23]: 40%; inhibition at 10 µM [24]: 22%; inhibition at 10 µM [25]: < 10%; inhibition at 10 µM [26]: 68%; inhibition at 10 µM [27]: 59%; inhibition at 10 µM [28]: 44%; inhibition at 10 µM [29]: < 10%; inhibition at 10 µM [30]: 20%; inhibition at 10 µM [31]: 50%
CCOC(=O)C1=C(N)N(c2ccc(Cl)cc2)C2=C(C(=O)CC(C)(C)C2)C1c1ccccc1Cl (racemic) [6c, (±)-Ethyl 2-amino-4–(2-chlorophenyl)-1–(4-chlorophenyl)-7,7-dimethyl-5-oxo-1,4,5,6,7,8-hexahydroquinoline-3-carboxylate] | < 10% | 500 ± 4 nM | < 10% | 31% | 18% | 40% | 32% | 27% | 43% | 29% | < 10% | < 10% | 76% | 48% | 58% | 67% | 40% | < 10% | 45% | 60% | IC50 [21]: 277 ± 120 nM; IC50 [22]: 530 ± 4 nM; inhibition at 10 µM [23]: 66%; inhibition at 10 µM [24]: < 10%; inhibition at 10 µM [25]: 29%; inhibition at 10 µM [26]: < 10%; inhibition at 10 µM [27]: 66%; inhibition at 10 µM [28]: 58%; inhibition at 10 µM [29]: < 10%; inhibition at 10 µM [30]: 23%; inhibition at 10 µM [31]: 28%
CCOC(=O)C1=C(N)N(c2ccccc2)C2=C(C(=O)CC(C)(C)C2)C1c1ccccc1Br (racemic) [6d, (±)-Ethyl 2-amino-4–(2-bromophenyl)-7,7-dimethyl-5-oxo-1-phenyl-1,4,5,6,7,8-hexahydroquinoline-3-carboxylate] | < 10% | 250 ± 5 nM | 35% | < 10% | 12% | 20% | 12% | < 10% | < 10% | 27% | < 10% | 20% | 33% | < 10% | 20% | 30% | 11% | < 10% | 36% | 17% | IC50 [21]: 99 ± 20 nM; IC50 [22]: 410 ± 2 nM; inhibition at 10 µM [23]: < 10%; inhibition at 10 µM [24]: < 10%; inhibition at 10 µM [25]: < 10%; inhibition at 10 µM [26]: 14%; inhibition at 10 µM [27]: 21%; inhibition at 10 µM [28]: 33%; inhibition at 10 µM [29]: < 10%; inhibition at 10 µM [30]: < 10%; inhibition at 10 µM [31]: 13%
CCOC(=O)C1=C(N)N(c2ccc(C)cc2)C2=C(C(=O)CC(C)(C)C2)C1c1ccccc1Br (racemic) [6e, (±)-Ethyl 2-amino-4–(2-bromophenyl)-7,7-dimethyl-1–(4-methylphenyl)-5-oxo-1,4,5,6,7,8-hexahydroquinoline-3-carboxylate] | < 10% | 370 ± 4 nM | 64% | 15% | 11% | 60% | 17% | < 10% | < 10% | 28% | < 10% | 50% | 68% | 54% | 46% | 30% | 14% | < 10% | 28% | 37% | IC50 [21]: 176 ± 70 nM; IC50 [22]: 480 ± 3 nM; inhibition at 10 µM [23]: 23%; inhibition at 10 µM [24]: 14%; inhibition at 10 µM [25]: < 10%; inhibition at 10 µM [26]: 34%; inhibition at 10 µM [27]: 60%; inhibition at 10 µM [28]: 43%; inhibition at 10 µM [29]: < 10%; inhibition at 10 µM [30]: < 10%; inhibition at 10 µM [31]: 17%
CCOC(=O)C1=C(N)N(c2ccc(Cl)cc2)C2=C(C(=O)CC(C)(C)C2)C1c1ccccc1Br (racemic) [6f, (±)-Ethyl 2-amino-4–(2-bromophenyl)-1–(4-chlorophenyl)-7,7-dimethyl-5-oxo-1,4,5,6,7,8-hexahydroquinoline-3-carboxylate] | < 10% | 480 ± 3 nM | < 10% | 13% | < 10% | 33% | 25% | 18% | 22% | 13% | < 10% | < 10% | 71% | 38% | 43% | 49% | 20% | < 10% | 36% | 44% | IC50 [21]: 313 ± 120 nM; IC50 [22]: 590 ± 4 nM; inhibition at 10 µM [23]: 79%; inhibition at 10 µM [24]: < 10%; inhibition at 10 µM [25]: < 10%; inhibition at 10 µM [26]: < 10%; inhibition at 10 µM [27]: 60%; inhibition at 10 µM [28]: 47%; inhibition at 10 µM [29]: < 10%; inhibition at 10 µM [30]: 17%; inhibition at 10 µM [31]: 24%
